Laboratory results taken from paper PMC10259803 (PLOS Pathogens, 2023).

Tests used:
[1] = system: D39x; experiment: ex vivo recombination frequency with mouse lung homogenate, D39x; type: cell-based, Streptococcus pneumoniae; settings: for ex vivo recombination frequency with homogenized lungs of mice treated in vivo: poly (I:C) 50 μL of 1 mg/mL IN daily 4 days, AEBSF 125 μg IN daily 3 days along with poly (I:C), 0 mM AEBSF ex vivo
Protocol: To determine the impact of proteases from the lungs of mice on recombination frequency, a similar experimental setup as the in vitro recombination frequency was performed. […] During culture incubation, the lungs of 10-week-old female Balb/cJ mice (N = 7) were harvested and homogenized in 600 μL PBS. Lung homogenate was incubated with either water or AEBSF for 30 minutes, room temperature. 60 μL of lung homogenate-AEBSF mixture was transferred to a new tube. Addition of CSP1, culture, and gDNA and transformation was performed in the same manner as the in vitro recombination frequency. The final concentration of CSP was 3 μg/mL and gDNA was 2 μg/mL. The final concentration of AEBSF was 0mM, 1 mM, or 2mM. The lung from each mouse was divided into six transformations: D39x with lungs incubated with 0mM, 1 mM, or 2mM AEBSF and D39x comC^- with lungs incubated with 0mM, 1 mM, or 2mM AEBSF. As a control, the same culture of D39x and D39x comC^- were transformed with gDNA and CSP1 incubated with AEBSF in PBS. Recombination frequency of the transformation with CSP1 incubated with 1 mM and with 2 mM AEBSF were compared to that incubated with 0 mM AEBSF using Kruskal-Wallis one-way ANOVA in Graphpad 6.
Lungs were harvested and homogenized in 600 μL PBS. The homogenates from all lungs were subjected to the ex vivo protocol described above and the recombination frequency of D39x and D39x comC^- subjected to lungs incubated with 0mM, 1 mM, or 2mM AEBSF and CSP1 was determined.

[2] = system: TIGR4; experiment: in vitro recombination frequency, TIGR4; type: cell-based, Streptococcus pneumoniae; settings: CSP2; PPT or HAT; 0.1 mM AEBSF
Protocol: During culture incubation, porcine pancreatic trypsin (PPT; Sigma #T4799) was reconstituted in Hank’s balanced salt solution (Gibco) and incubated with either water or 4-(2-Aminoethyl) benzenesulfonyl fluoride hydrochloride (AEBSF; Cayman #14321) in a total volume of 50μL 30mM Tris, pH 8.5 and incubated for 15 minutes, room temperature. CSP1 or CSP2 was added, followed by incubation for 30 minutes, room temperature. When the culture reached OD620~0.08, 1 mL of culture was transferred to the PPT-AEBSF-CSP mixture and 2 μg of D39 Tn-seq library gDNA (D39 strains) or 2 μg of TIGR4 Tn-seq library gDNA (TIGR4 strains) was added. […] Upon addition of the culture, the final concentration of PPT ranged from 0–10 μg/mL, AEBSF was 0.1 mM, CSP was 3 μg/mL, and gDNA was 2 μg/mL. The transformation was incubated for 3 hours at 37°C, 5% CO2, followed by serial dilution and plating on two TSA blood plates and two TSA blood plates supplemented with 200 μg/mL spectinomycin. To observe low-frequency recombination events, 200 μL of the transformation was also spread plated on two TSA blood plates supplemented with 200 μg/mL spectinomycin. For transformations with HAT incubated CSP, HAT (Bio-techne R&D #2695-SE-010) was reconstituted in 25mM Tris, 150mM NaCl, pH 7.5. All incubation times and final concentrations were the same as for PPT; however, the volumes were 1/10th as that for PPT. […]

[3] = system: DLA3; experiment: Luminescence assay, DLA3 (PssbB-luc competence reporter); settings: CSP1; 0.1 mM AEBSF
Protocol: DLA3 was inoculated in C+Y at OD620~0.03. Either PPT or HAT was incubated with water or AEBSF for 15 minutes, room temperature, followed by incubation with CSP1 for thirty minutes in a total volume of 5 μL 30mM Tris, pH 8.5. When the culture reached OD620~0.08, cells were pelleted at 6,000xg, 5 min and resuspended in fresh C+Y. 100 μL of the culture was added to the Trypsin-AEBSF-CSP mixture, followed by transfer to a white-walled, clear-bottom 96-well plate and addition of 5 μL of 10 mg/mL luciferin (Sigma #L6882). Luminescence and OD620 measurements were taken every 30 minutes in a Biotek Cytation 3.

[4] = system: D39x comC^-; experiment: in vitro recombination frequency, D39x comC^-; type: cell-based, Streptococcus pneumoniae
Protocol: During culture incubation, porcine pancreatic trypsin (PPT; Sigma #T4799) was reconstituted in Hank’s balanced salt solution (Gibco) and incubated with either water or 4-(2-Aminoethyl) benzenesulfonyl fluoride hydrochloride (AEBSF; Cayman #14321) in a total volume of 50μL 30mM Tris, pH 8.5 and incubated for 15 minutes, room temperature. CSP1 or CSP2 was added, followed by incubation for 30 minutes, room temperature. When the culture reached OD620~0.08, 1 mL of culture was transferred to the PPT-AEBSF-CSP mixture and 2 μg of D39 Tn-seq library gDNA (D39 strains) or 2 μg of TIGR4 Tn-seq library gDNA (TIGR4 strains) was added. […] Upon addition of the culture, the final concentration of PPT ranged from 0–10 μg/mL, AEBSF was 0.1 mM, CSP was 3 μg/mL, and gDNA was 2 μg/mL. The transformation was incubated for 3 hours at 37°C, 5% CO2, followed by serial dilution and plating on two TSA blood plates and two TSA blood plates supplemented with 200 μg/mL spectinomycin. To observe low-frequency recombination events, 200 μL of the transformation was also spread plated on two TSA blood plates supplemented with 200 μg/mL spectinomycin. For transformations with HAT incubated CSP, HAT (Bio-techne R&D #2695-SE-010) was reconstituted in 25mM Tris, 150mM NaCl, pH 7.5. All incubation times and final concentrations were the same as for PPT; however, the volumes were 1/10th as that for PPT. For both PPT and HAT, the experiment was repeated at least three times.

[5] = system: S. pneumoniae D39; experiment: in vivo recombination frequency, poly (I:C) / AEBSF treated mice; settings: Balb/cJ mice; poly (I:C) 50 μL of 1 mg/mL IN daily 4 days vs vehicle; AEBSF 125 μg IN prior to poly (I:C) vs poly (I:C) without inhibitor; 20 h after challenge
[6] = system: serine proteases in mouse lung homogenates and sera; experiment: Protease levels (fluorescence of substrate BOC); type: biochemical; settings: for Protease levels in lungs and sera of treated mice: poly (I:C) vs control mice (lungs and sera), AEBSF prior to poly (I:C) vs poly (I:C) alone (lungs)
Protocol: For ex vivo experiments, the protease levels were measured from the same lung homogenate used in the ex vivo recombination frequency experiment, adapting the protocol from the HAT manufacturer (Bio-techne R&D). After the lungs were incubated with either water or AEBSF, 50 μL of lung homogenate mixture was transferred to a black, 96-well plate. 50 μL of substrate t-Butyloxycarbonyl Phe-Ser-Arg 7-amino-4methyl coumarin (Bachem # I1400) was added directly to the well, incubated for 10 minutes at room temperature, and fluorescence (380 excitation; 460 emission) was detected in a Biotek Cytation 3. Protease levels of lung homogenates incubated with 1 mM and 2 mM AEBSF were compared to that incubated with 0 mM AEBSF using one-way ANOVA and correlation between protease levels and recombination frequency was compared using two-tailed spearman in Graphpad 6.
For in vivo experiments, homogenized lungs were further clarified after plating on TSA plates via centrifugation at 10,000xg, 5min. Sera was separated from whole blood via centrifugation at 10,000xg, 5 min in sera-collection tubes. The clarified homogenates and sera were transferred to a black, 96-well plate and 50 μL of substrate t-Butyloxycarbonyl Phe-Ser-Arg 7-amino-4methyl coumarin was added directly to the well and fluorescence (380 excitation; 460 emission) was detected in a Biotek Cytation 3. Protease levels of all groups were compared pairwise for each tissue using unpaired t test and correlation between protease levels and recombination frequency was compared using two-tailed spearman in Graphpad 6.

[7] = system: DLA3; experiment: Growth (OD620) of DLA3; settings: DLA3 with CSP1 incubated with trypsin with and without AEBSF (S1 Fig)
Protocol: A similar protocol as the in vitro recombination frequency was followed. DLA3 was inoculated in C+Y at OD620~0.03. Either PPT or HAT was incubated with water or AEBSF for 15 minutes, room temperature, followed by incubation with CSP1 for thirty minutes in a total volume of 5 μL 30mM Tris, pH 8.5. When the culture reached OD620~0.08, cells were pelleted at 6,000xg, 5 min and resuspended in fresh C+Y. 100 μL of the culture was added to the Trypsin-AEBSF-CSP mixture, followed by transfer to a white-walled, clear-bottom 96-well plate and addition of 5 μL of 10 mg/mL luciferin (Sigma #L6882). Luminescence and OD620 measurements were taken every 30 minutes in a Biotek Cytation 3. Increasing concentrations of protease within each group (0 mM AEBSF or 0.1 mM AEBSF) were compared using two-way ANOVA in Graphpad 6.
Absorbance at OD620 of DLA3 grown in the presence of CSP1 incubated with increasing concentrations of trypsin with and without inhibitor AEBSF. Incubation of CSP1 with PPT (A) without AEBSF or (B) with AEBSF. Incubation of CSP1 with HAT (C) without AEBSF or (D) with AEBSF. Experiment was repeated in triplicate. The mean value of OD620 of each 30-minute timepoint is reported; error bars are SEM.

[8] = molecular target: T1, porcine trypsin (Sus scrofa, UniProt P00761); experiment: Mass spectrometry of CSP cleavage by porcine trypsin; type: in vitro ADME; settings: 30 min, room temperature
T1 construct: purchased Promega V5280
Protocol: Fig 1 Serine proteases cleave competence-stimulating peptide of S. pneumoniae. (A) Sequence of competence-stimulating peptide 1 (CSP1) and peptide 2 (CSP2). Red arrows indicate potential cleavage sites by trypsin-like serine proteases. (B) Mass spectrometry analysis of cleaved residues of CSP1 upon incubation with no trypsin (grey) or with porcine trypsin (black) for 30 minutes. (C) Mass spectrometry analysis of cleaved residues of CSP1 upon incubation with no trypsin (grey) or with human airway trypsin (HAT) (black) for 30 minutes. (D) Mass spectrometry analysis of cleaved residues of CSP2 upon incubation with no trypsin (grey) or with porcine trypsin (black) for 30 minutes. (E) Mass spectrometry analysis of cleaved residues of CSP2 upon incubation with no trypsin (grey) or with HAT (black) for 30 minutes. (B-E) The fraction of each peptide detected by mass spectrometry was calculated by dividing the area of the cleaved peptide by the total area of all peptides. In the case of two cleavage sites on the same peptide, the fraction was equally attributed to both cleavage sites. […]
CSPs was incubated with either porcine trypsin gold (Promega #V5280) or human airway trypsin-like protease (HAT; Bio-techne R&D #2695-SE-010) for thirty minutes, room temperature. […] The eluted peptides were ionized by electrospray ionization and detected by an inline mass spectrometer (Thermo Orbitrap Fusion). […]

[9] = system: porcine trypsin gold; experiment: porcine trypsin gold (Promega #V5280); settings: room temperature, up to thirty minutes

T1 sequence (P00761 9-231): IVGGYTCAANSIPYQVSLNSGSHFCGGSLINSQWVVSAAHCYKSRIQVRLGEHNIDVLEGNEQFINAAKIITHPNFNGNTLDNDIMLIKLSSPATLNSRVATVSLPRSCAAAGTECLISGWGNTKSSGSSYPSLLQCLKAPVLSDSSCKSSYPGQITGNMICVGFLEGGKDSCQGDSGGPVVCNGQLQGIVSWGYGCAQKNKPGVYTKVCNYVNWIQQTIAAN

Cl.NCCc1ccc(S(=O)(=O)F)cc1 [AEBSF, 4-(2-Aminoethyl) benzenesulfonyl fluoride hydrochloride]
recombination frequency with CSP1 incubated with AEBSF alone ([1]; CSP1 in PBS with increasing AEBSF, no lung homogenate, D39x and D39x comC^- (S3 Fig)): did not increase
recombination frequency with CSP1 incubated with lung homogenates treated with AEBSF ([1]; mouse lung homogenate incubated 30 min with 1 or 2 mM AEBSF vs 0 mM): increased
ex vivo recombination frequency with homogenized lungs of mice treated in vivo [1]: restored
protease-caused reduction of recombination frequency when proteases were incubated with AEBSF [2]: abrogated
PPT-caused reduction of DLA3 luminescence when PPT was pre-incubated with AEBSF [3]: abrogated
recombination frequency with CSP1 incubated with PPT or HAT pre-incubated with AEBSF ([4]; 0.1 mM AEBSF, protease pre-incubated 15 min): at a similar level as that of the no trypsin control
in vivo recombination frequency of D39 in lungs and blood [5]: higher frequency
levels of serine proteases in the lung homogenates ([6]; lung homogenate incubated with 1 or 2 mM AEBSF, BOC substrate fluorescence): decreased
Protease levels in lungs and sera of treated mice ([6]; BOC substrate fluorescence): reduced
Growth of S. pneumoniae (OD620) [7]: not reduced

CC[C@H](C)[C@H](NC(=O)[C@H](Cc1ccccc1)NC(=O)[C@H](CC(=O)O)NC(=O)[C@H](CCCNC(=N)N)NC(=O)[C@H](Cc1ccccc1)NC(=O)[C@H](Cc1ccccc1)NC(=O)[C@H](CCCCN)NC(=O)[C@H](CO)NC(=O)[C@H](CC(C)C)NC(=O)[C@H](CCCNC(=N)N)NC(=O)[C@H](CCSC)NC(=O)[C@@H](N)CCC(=O)O)C(=O)N[C@@H](CC(C)C)C(=O)N[C@@H](CCC(N)=O)C(=O)N[C@@H](CCCNC(=N)N)C(=O)N[C@@H](CCCCN)C(=O)N[C@@H](CCCCN)C(=O)O [CSP1]
recombination frequency after incubation of CSP with mouse lung homogenate ([1]; mouse lung homogenate, ex vivo): reduced
HAT concentration to reduce the recombination frequency to below 5% of 0 trypsin ([4]; CSP incubated with HAT 30 min, room temperature): 1 µg/mL
PPT concentration to reduce the recombination frequency to below 5% of 0 trypsin ([4]; CSP incubated with PPT 30 min, room temperature): 0.05 µg/mL
preferential cleavage site, porcine trypsin [8]: R15 followed by K6 and R9

poly (I:C)
ex vivo recombination frequency with homogenized lungs of mice treated in vivo [1]: reduced
in vivo recombination frequency of D39 in lungs and blood [5]: significant reduction
Protease levels in lungs and sera of treated mice ([6]; BOC substrate fluorescence): higher
protease levels in inflamed lungs, equated to recombinant HAT ([6]; recombinant HAT standard, 35000 RFU = 0.05 μg/mL, non-inflamed lungs 0.079 (±0.010)): 0.168 (±0.012) μg/mL

EMRISRIILDFLFLRKK
cleaved bond [9]: R6-I7 and E-M and D-F
